Assay results: patent publication EP0745595A1, “3-(3-Aryloxyphenyl)-1-(substituted methyl)-s-triazine-2,4,6-oxo or thiotrione herbicidal agents” (American Cyanamid Company, priority 1995, dated 1996)

Assays:
Format in all cases: in vivo
CHENOPODIUM ALBUM, L. [1] = assay: Preemergence herbicidal evaluation, CHEAL (Lambsquarters, Common); conditions: four to five weeks after treatment
From the text: (§1) Results of herbicide evaluation are expressed on a rating scale (0-9). The scale is based upon a visual observation of plant stand, vigor, malformation, size, chlorosis and overall plant appearance as compared with a control.
The preemergence herbicidal activity of the test compounds of the present invention is exemplified by the following tests in which the seeds of a variety of monocotyledonous and dicotyledonous plants are separately mixed with potting soil and planted on top of approximately one inch of soil in separate pint cups. […] The treated cups are then placed on greenhouse benches, watered and cared for in accordance with conventional greenhouse procedures. From four to five weeks after treatment, the tests are terminated and each cup is examined and rated according to the rating system provided in Example 40.
The compounds evaluated are reported by compound number given in Example 40.

CASSIA OBTUSIFOLIA, L. = assay: Postemergence herbicidal evaluation, CASOB (Sicklepod); conditions: rated four to five weeks after treatment, averaged
Description: (§2) In the tests, seedling plants are grown in jiffy flats for about two weeks. The test compounds are dispersed in 50/50 acetone/water mixtures containing 0.5% TWEEN®20, a polyoxyethylene sorbitan monolaurate surfactant of Atlas Chemical Industries, in sufficient quantities to provide the equivalent of about 0.125 kg to 0.500 kg per hectare of active compound when applied to the plants through a spray nozzle operating at 40 psi for a predetermined time. After spraying, the plants are placed on greenhouse benches and are cared for in the usual manner, commensurate with conventional greenhouse practices. From four to five weeks after treatment, the seedling plants are examined and rated according to the rating system set forth below. Where more than one test is involved for a given compound, the data are averaged.
(§3) Plant species employed in these evaluations are reported by header abbreviation, common name and scientific name.
as §1

[…], PRESL. = Preemergence weed control under flooded paddy conditions, MOOVA (Monochoria); conditions: preemergence weeds, rated three to four weeks after treatment
Description: as §1
(§4) Preemergence herbicidal activity under flooded paddy conditions is determined as follows: plant seeds or propagating organs are planted in the top 0.5 cm of silt loam soil in 32 oz. plastic containers with a diameter of 10.5 cm and no drainage holes. Water is added to these containers and maintained at 1.5 to 3 cm above the soil surface for the duration of the experiment. The test compounds are applied as aqueous/acetone mixtures 50/50 v/v pipetted directly into the flood water to give the equivalent of about 0.5, 0.25, 0.125 and 0.063 kg/ha of active ingredient. The treated containers are placed on greenhouse benches and cared for according to normal greenhouse procedures.- Three to four weeks after treatment the test is terminated and each container is examined and herbicidal effect rated according to the rating system provided in Example 40. The compounds evaluated are reported by compound number given in Example 40.
(§5) Plant species employed in this example are reported by header abbreviation, common name and scientific name.

CHENOPODIUM ALBUM, L. [2] = assay: Postemergence herbicidal evaluation, CHEAL (Lambsquarters, Common); conditions: rated four to five weeks after treatment, averaged
Description: as §2, with “in sufficient quantities to provide the equivalent of about 0.125 kg to 0.500 kg per hectare of active compound when applied” left out
as §3, §1

CYPERUS IRIA = assay: Preemergence weed control under flooded paddy conditions, CYPIR (Rice Flatsedge); conditions: preemergence weeds, rated three to four weeks after treatment
Description: as §1
as §4, with “The test compounds are applied as aqueous/acetone mixtures 50/50 v/v pipetted directly into the flood water to give the equivalent of about 0.5, 0.25, 0.125 and 0.063 kg/ha of active ingredient.” left out
as §5

[3] = system: AMBROSIA ARTEMISIIFOLIA, L.; assay: Postemergence herbicidal evaluation, AMBEL (Ragweed, Common); conditions: rated four to five weeks after treatment, averaged
Description: as §2, with “in sufficient quantities to provide the equivalent of about 0.125 kg to 0.500 kg per hectare of active compound when applied” left out
as §3, §1

[4] = system: ORYZA SATIVA, L. TEBONNET; assay: Rice tolerance to post-transplant applications under flooded paddy conditions, ORYSAT (Rice, Tebonnet); conditions: post-transplant rice, rated three to four weeks after treatment;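 also: applied to flooded soil surface three days after transplanting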
Procedure, shortened: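 Two ten-day-old Tebonnet rice seedlings were transplanted into silt loam and kept flooded 1.5 to 3 cm deep. Three days after transplanting, the flood surface received the compound in aqueous/acetone 50/50 v/v at about 0.5, 0.25, 0.125 or 0.063 kg/ha. Injury was rated visually on a 0-9 scale versus control after 3-4 weeks.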

[5] = system: ECHINOCHLOA ORYZOIDES (ARD.)FRITSCH; assay: Preemergence weed control under flooded paddy conditions, ECHORC (Watergrass (Calif.)); conditions: preemergence weeds, rated three to four weeks after treatment
Description: as §1
as §4, with “The test compounds are applied as aqueous/acetone mixtures 50/50 v/v pipetted directly into the flood water to give the equivalent of about 0.5, 0.25, 0.125 and 0.063 kg/ha of active ingredient.” left out
as §5

IPOMOEA SPP. = assay: Postemergence herbicidal evaluation, IPOSS (Morningglory spp.); conditions: rated four to five weeks after treatment, averaged
Procedure, shortened: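 Seedlings of morningglory (Ipomoea spp.) were raised in jiffy flats for roughly two weeks. They were then sprayed postemergence through a nozzle at 40 psi with test compound dispersed in 50/50 acetone/water containing 0.5% TWEEN®20 surfactant. Plants were kept on greenhouse benches under standard care and visually rated 0-9 against controls four to five weeks after treatment.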

[6] = system: ABUTILON THEOPHRASTI, MEDIC.; assay: Postemergence herbicidal evaluation, ABUTH (Velvetleaf); conditions: rated four to five weeks after treatment, averaged
Procedure, shortened: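 Velvetleaf (Abutilon theophrasti) seedlings were raised in jiffy flats for about two weeks and then sprayed postemergence. The test compound was dispersed in a 50/50 acetone/water mixture containing 0.5% TWEEN®20 and applied through a nozzle operating at 40 psi. Plants were kept on greenhouse benches and rated 0-9 four to five weeks after treatment.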

`CCOC(=O)Cn1c(=O)n(C)c(=O)n(-c2cc(Oc3ccc(C(F)(F)F)cc3Cl)ccc2[N+](=O)[O-])c1=O` [Compound 9, Ethyl 3-{5-[(2-chloro-α,α,α-trifluoro-p-tolyl)oxy]-2-nitrophenyl}tetrahydro-5-methyl-2,4,6-trioxo-s-triazine-1(2H)-acetate] showed a CHEAL rating (CHENOPODIUM ALBUM, L. [1]; Rate 0.125 kg/ha) of 9.0, a CHEAL rating (CHENOPODIUM ALBUM, L. [1]; Rate 0.250 kg/ha) of 9.0 and a CHEAL rating (CHENOPODIUM ALBUM, L. [1]; Rate 0.500 kg/ha) of 9.0. The “CASOB, herbicide rating (0-9)” value (CASSIA OBTUSIFOLIA, L.; Rate 0.125 kg/ha) was 9.0, the “CASOB, herbicide rating (0-9)” value (CASSIA OBTUSIFOLIA, L.; Rate 0.250 kg/ha) was 9.0 and the “CASOB, herbicide rating (0-9)” value (CASSIA OBTUSIFOLIA, L.; Rate 0.500 kg/ha) was 9.0. It also gave an MOOVA herbicidal rating ([…], PRESL.; Rate 0.063 kg/ha) of 9.0, an MOOVA herbicidal rating ([…], PRESL.; Rate 0.125 kg/ha) of 9.0 and an MOOVA herbicidal rating ([…], PRESL.; Rate 0.250 kg/ha) of 9.0. For the same compound, the MOOVA herbicidal rating ([…], PRESL.; Rate 0.500 kg/ha) was 9.0, the “CHEAL, herbicide rating (0-9)” value (CHENOPODIUM ALBUM, L. [2]; Rate 0.125 kg/ha) was 9.0 and the “CHEAL, herbicide rating (0-9)” value (CHENOPODIUM ALBUM, L. [2]; Rate 0.250 kg/ha) was 9.0. For the same compound, the “CHEAL, herbicide rating (0-9)” value (CHENOPODIUM ALBUM, L. [2]; Rate 0.500 kg/ha) was 9.0, the CYPIR herbicidal rating (CYPERUS IRIA; Rate 0.063 kg/ha) was 9.0 and the CYPIR herbicidal rating (CYPERUS IRIA; Rate 0.125 kg/ha) was 9.0. For the same compound, the CYPIR herbicidal rating (CYPERUS IRIA; Rate 0.250 kg/ha) was 9.0, the CYPIR herbicidal rating (CYPERUS IRIA; Rate 0.500 kg/ha) was 9.0 and the “AMBEL, herbicide rating (0-9)” value ([3]; Rate 0.125 kg/ha) was 9.0. For the same compound, the “AMBEL, herbicide rating (0-9)” value ([3]; Rate 0.250 kg/ha) was 9.0, the “AMBEL, herbicide rating (0-9)” value ([3]; Rate 0.500 kg/ha) was 9.0 and the “ORYSAT herbicidal rating (rice tolerance)” value (from here on “ORYSAT herbicidal rating”) ([4]; Rate 0.063 kg/ha) was 3.3. The “ORYSAT herbicidal rating” value ([4]; Rate 0.125 kg/ha) was 3.7, the “ORYSAT herbicidal rating” value ([4]; Rate 0.250 kg/ha) was 5.7 and the “ORYSAT herbicidal rating” value ([4]; Rate 0.500 kg/ha) was 6.0. The ECHORC herbicidal rating ([5]; Rate 0.063 kg/ha) was 9.0, the ECHORC herbicidal rating ([5]; Rate 0.125 kg/ha) was 9.0 and the ECHORC herbicidal rating ([5]; Rate 0.250 kg/ha) was 9.0. The ECHORC herbicidal rating ([5]; Rate 0.500 kg/ha) was 9.0, the “IPOSS, herbicide rating (0-9)” value (IPOMOEA SPP.; Rate 0.125 kg/ha) was 9.0 and the “IPOSS, herbicide rating (0-9)” value (IPOMOEA SPP.; Rate 0.250 kg/ha) was 9.0. For the same compound, the “IPOSS, herbicide rating (0-9)” value (IPOMOEA SPP.; Rate 0.500 kg/ha) was 9.0, the “ABUTH, herbicide rating (0-9)” value ([6]; Rate 0.125 kg/ha) was 9.0 and the “ABUTH, herbicide rating (0-9)” value ([6]; Rate 0.250 kg/ha) was 9.0. The “ABUTH, herbicide rating (0-9)” value ([6]; Rate 0.500 kg/ha) was 9.0.
